Laboratory results: article PMC11277489, “Novel Piperazine Derivatives of Vindoline as Anticancer Agents” (International Journal of Molecular Sciences, 2024)

Key:
UACC-257 = assay: NCI60 one-dose screen (10 μM), Melanoma; type: cell-based; conditions: Homo sapiens; 10 μM; UACC-257, Melanoma; read-out: Growth percent rate
COLO 205 = assay: NCI60 one-dose screen (10 μM), Colon Cancer; type: cell-based, human
OVCAR-8 = assay: NCI60 one-dose screen (10 μM), Ovarian Cancer; type: cell-based; conditions: Homo sapiens; 10 μM; OVCAR-8, Ovarian Cancer; read-out: Growth percent rate
EKVX = assay: NCI60 one-dose screen (10 μM), Non-small Cell Lung Cancer; type: cell-based; conditions: Homo sapiens, 10 μM, Non-small Cell Lung Cancer, read-out: Growth percent rate
SF-295 = assay: NCI60 one-dose screen (10 μM), CNS Cancer; type: cell-based; conditions: Homo sapiens; 10 μM; SF-295, CNS Cancer; read-out: Growth percent rate
RXF 393 = assay: NCI60 one-dose screen (10 μM), Renal Cancer; type: cell-based, human
SN12C = assay: NCI60 one-dose screen (10 μM), Renal Cancer; type: cell-based; conditions: Homo sapiens, 10 μM, Renal Cancer, read-out: Growth percent rate
CAKI-1 = assay: NCI60 one-dose screen (10 μM), Renal Cancer; type: cell-based; conditions: Homo sapiens; 10 μM; CAKI-1, Renal Cancer; read-out: Growth percent rate
SF-268 = assay: NCI60 one-dose screen (10 μM), CNS Cancer; type: cell-based; conditions: Homo sapiens; 10 μM; SF-268, CNS Cancer; read-out: Growth percent rate
NCI-H23 = assay: NCI60 one-dose screen (10 μM), Non-small Cell Lung Cancer; type: cell-based; conditions: Homo sapiens; 10 μM; NCI-H23, Non-small Cell Lung Cancer; read-out: Growth percent rate
HCC-2998 = assay: NCI60 one-dose screen (10 μM), Colon Cancer; type: cell-based; conditions: Homo sapiens; 10 μM; HCC-2998, Colon Cancer; read-out: Growth percent rate
SNB-75 = assay: NCI60 one-dose screen (10 μM), CNS Cancer; type: cell-based, human; conditions: Homo sapiens; 10 μM; SNB-75, CNS Cancer; read-out: Growth percent rate
OVCAR-3 = assay: NCI60 one-dose screen (10 μM), Ovarian Cancer; type: cell-based; conditions: Homo sapiens; 10 μM; OVCAR-3, Ovarian Cancer; read-out: Growth percent rate
MCF7 = assay: NCI60 one-dose screen (10 μM), Breast Cancer; type: cell-based; conditions: Homo sapiens; 10 μM; MCF7, Breast Cancer; read-out: Growth percent rate
MOLT-4 = assay: NCI60 one-dose screen (10 μM), Leukemia; type: cell-based, human; conditions: Homo sapiens; 10 μM; MOLT-4, Leukemia; read-out: Growth percent rate
[1] = tested on: 60 human tumor cell lines (NCI60); assay: NCI60 one-dose screen (10 μM), whole panel; type: cell-based; conditions: 10 μM; mean over 60 human cancer cell lines; read-out: Growth percent rate, Mean
SNB-19 = assay: NCI60 one-dose screen (10 μM), CNS Cancer; type: cell-based; conditions: Homo sapiens; 10 μM; SNB-19, CNS Cancer; read-out: Growth percent rate
786–0 = assay: NCI60 one-dose screen (10 μM), Renal Cancer; type: cell-based; conditions: Homo sapiens; 10 μM; 786-0, Renal Cancer; read-out: Growth percent rate
DU-145 = assay: NCI60 one-dose screen (10 μM), Prostate Cancer; type: cell-based; conditions: Homo sapiens; 10 μM; DU-145, Prostate Cancer; read-out: Growth percent rate
HL-60(TB) = assay: NCI60 one-dose screen (10 μM), Leukemia; type: cell-based; conditions: Homo sapiens; 10 μM; HL-60(TB), Leukemia; read-out: Growth percent rate
NCI-H460 = assay: NCI60 one-dose screen (10 μM), Non-small Cell Lung Cancer; type: cell-based; conditions: Homo sapiens; 10 μM; NCI-H460, Non-small Cell Lung Cancer; read-out: Growth percent rate
SK-MEL-2 = assay: NCI60 one-dose screen (10 μM), Melanoma; type: cell-based; conditions: Homo sapiens; 10 μM; SK-MEL-2, Melanoma; read-out: Growth percent rate
NCI-H322M = assay: NCI60 one-dose screen (10 μM), Non-small Cell Lung Cancer; type: cell-based; conditions: Homo sapiens, 10 μM, Non-small Cell Lung Cancer, read-out: Growth percent rate
SK-MEL-28 = assay: NCI60 one-dose screen (10 μM), Melanoma; type: cell-based; conditions: Homo sapiens; 10 μM; SK-MEL-28, Melanoma; read-out: Growth percent rate
OVCAR-4 = assay: NCI60 one-dose screen (10 μM), Ovarian Cancer; type: cell-based; conditions: Homo sapiens; 10 μM; OVCAR-4, Ovarian Cancer; read-out: Growth percent rate
SW-620 = assay: NCI60 one-dose screen (10 μM), Colon Cancer; type: cell-based; conditions: Homo sapiens; 10 μM; SW-620, Colon Cancer; read-out: Growth percent rate
LOX IMVI = assay: NCI60 one-dose screen (10 μM), Melanoma; type: cell-based, human; conditions: Homo sapiens; 10 μM; LOX IMVI, Melanoma; read-out: Growth percent rate
MALME-3M = assay: NCI60 one-dose screen (10 μM), Melanoma; type: cell-based; conditions: Homo sapiens; 10 μM; MALME-3M, Melanoma; read-out: Growth percent rate
K-562 = assay: NCI60 one-dose screen (10 μM), Leukemia; type: cell-based; conditions: Homo sapiens, K562; 10 μM; K-562, Leukemia; read-out: Growth percent rate
KM12 = assay: NCI60 one-dose screen (10 μM), Colon Cancer; type: cell-based, human; conditions: Homo sapiens; 10 μM; KM12, Colon Cancer; read-out: Growth percent rate
NCI-H522 = assay: NCI60 one-dose screen (10 μM), Non-small Cell Lung Cancer; type: cell-based; conditions: Homo sapiens; 10 μM; NCI-H522, Non-small Cell Lung Cancer; read-out: Growth percent rate
SF-539 = assay: NCI60 one-dose screen (10 μM), CNS Cancer; type: cell-based, human
MDA-MB-435 = assay: NCI60 one-dose screen (10 μM), Melanoma; type: cell-based; conditions: Homo sapiens; 10 μM; MDA-MB-435, Melanoma; read-out: Growth percent rate
A549/ATCC = assay: NCI60 one-dose screen (10 μM), Non-small Cell Lung Cancer; type: cell-based; conditions: Homo sapiens; 10 μM; A549/ATCC, Non-small Cell Lung Cancer; read-out: Growth percent rate
HCT-15 = assay: NCI60 one-dose screen (10 μM), Colon Cancer; type: cell-based; conditions: Homo sapiens; 10 μM; HCT-15, Colon Cancer; read-out: Growth percent rate
CCRF-CEM = assay: NCI60 one-dose screen (10 μM), Leukemia; type: cell-based; conditions: Homo sapiens, 10 μM, Leukemia, read-out: Growth percent rate
HT29 = assay: NCI60 one-dose screen (10 μM), Colon Cancer; type: cell-based; conditions: Homo sapiens, HT-29; 10 μM; HT29, Colon Cancer; read-out: Growth percent rate
M14 = assay: NCI60 one-dose screen (10 μM), Melanoma; type: cell-based; conditions: Homo sapiens; 10 μM; M14, Melanoma; read-out: Growth percent rate
IGROV1 = assay: NCI60 one-dose screen (10 μM), Ovarian Cancer; type: cell-based; conditions: Homo sapiens, IGROV-1; 10 μM; IGROV1, Ovarian Cancer; read-out: Growth percent rate
SK-MEL-5 = assay: NCI60 one-dose screen (10 μM), Melanoma; type: cell-based, human
ACHN = assay: NCI60 one-dose screen (10 μM), Renal Cancer; type: cell-based; conditions: Homo sapiens, 10 μM, Renal Cancer, read-out: Growth percent rate
HCT-116 = assay: NCI60 one-dose screen (10 μM), Colon Cancer; type: cell-based; conditions: Homo sapiens; 10 μM; HCT-116, Colon Cancer; read-out: Growth percent rate

Q: Which activity at 10 µM (UACC-257) does the source give for `CC[C@]12C=CCN3CC[C@@]4(c5ccc(OC)cc5N(C)[C@H]4[C@@](O)(C(=O)OC)[C@@H]1OC(=O)CCCN1CCN(c4ccc(C(F)(F)F)cc4)CC1)[C@@H]32` [Compound 22] here?
A: The activity at 10 µM was -79.3%.

Q: What about the growth percent rate (COLO 205; 10 μM one-dose, COLO-205 colon cancer, negative = lethality) of the same compound?
A: Its growth percent rate is −93.46%.

Q: What about the activity at 10 µM (COLO 205; Homo sapiens, 10 μM, COLO 205, Colon Cancer, read-out: Growth percent rate) of the same compound?
A: The activity at 10 µM was -93.5%.

Q: And the activity at 10 µM (OVCAR-8)?
A: The activity at 10 µM was -47.4%.

Q: And the activity at 10 µM (EKVX)?
A: Its activity at 10 µM is -49.9%.

Q: What about the activity at 10 µM (SF-295) of the same compound?
A: The activity at 10 µM was -84.8%.

Q: And the growth percent rate (RXF 393; 10 μM one-dose, RXF-393 renal cancer, negative = lethality)?
A: Its growth percent rate is −91.93%.

Q: And the activity at 10 µM (RXF 393; Homo sapiens, 10 μM, RXF 393, Renal Cancer, read-out: Growth percent rate)?
A: Its activity at 10 µM is -91.9%.

Q: What about the activity at 10 µM (SN12C) of the same compound?
A: The activity at 10 µM was -66.4%.

Q: What about the activity at 10 µM (CAKI-1) of the same compound?
A: Its activity at 10 µM is -65%.

Q: What about the activity at 10 µM (SF-268) of the same compound?
A: The activity at 10 µM was 0.04%.

Q: And the activity at 10 µM (NCI-H23)?
A: The activity at 10 µM was -61.1%.

Q: And the activity at 10 µM (HCC-2998)?
A: Its activity at 10 µM is -82.3%.

Q: What about the activity at 10 µM (SNB-75) of the same compound?
A: Its activity at 10 µM is 2.76%.

Q: What about the activity at 10 µM (OVCAR-3) of the same compound?
A: Its activity at 10 µM is -71.5%.

Q: What about the activity at 10 µM (MCF7) of the same compound?
A: Its activity at 10 µM is -51.5%.

Q: What about the activity at 10 µM (MOLT-4) of the same compound?
A: Its activity at 10 µM is 9.3%.

Q: And the activity at 10 µM [1]?
A: The activity at 10 µM was -44.5%.

Q: And the activity at 10 µM (SNB-19)?
A: The activity at 10 µM was -3.08%.

Q: What about the activity at 10 µM (786–0) of the same compound?
A: Its activity at 10 µM is -72.7%.

Q: What about the activity at 10 µM (DU-145) of the same compound?
A: The activity at 10 µM was -38.8%.

Q: And the activity at 10 µM (HL-60(TB))?
A: Its activity at 10 µM is 7.9%.

Q: What about the activity at 10 µM (NCI-H460) of the same compound?
A: The activity at 10 µM was -36.9%.

Q: What about the activity at 10 µM (SK-MEL-2) of the same compound?
A: The activity at 10 µM was -93.9%.

Q: What about the activity at 10 µM (NCI-H322M) of the same compound?
A: Its activity at 10 µM is 50.5%.

Q: And the activity at 10 µM (SK-MEL-28)?
A: The activity at 10 µM was -92.1%.

Q: And the activity at 10 µM (OVCAR-4)?
A: Its activity at 10 µM is -18.9%.

Q: And the activity at 10 µM (SW-620)?
A: The activity at 10 µM was 7.47%.

Q: What about the activity at 10 µM (LOX IMVI) of the same compound?
A: The activity at 10 µM was -97.2%.

Q: And the activity at 10 µM (MALME-3M)?
A: The activity at 10 µM was -90.3%.

Q: And the activity at 10 µM (K-562)?
A: The activity at 10 µM was 6.96%.

Q: What about the activity at 10 µM (KM12) of the same compound?
A: Its activity at 10 µM is -70%.

Q: What about the activity at 10 µM (NCI-H522) of the same compound?
A: The activity at 10 µM was -86%.

Q: And the growth percent rate (SF-539; 10 μM one-dose, SF-539 CNS cancer, negative = lethality)?
A: The growth percent rate was −96.98%.

Q: And the activity at 10 µM (SF-539; Homo sapiens, 10 μM, SF-539, CNS Cancer, read-out: Growth percent rate)?
A: The activity at 10 µM was -97%.

Q: And the activity at 10 µM (MDA-MB-435)?
A: Its activity at 10 µM is -78.9%.

Q: And the activity at 10 µM (A549/ATCC)?
A: The activity at 10 µM was 4.54%.

Q: And the activity at 10 µM (HCT-15)?
A: The activity at 10 µM was -82.9%.

Q: And the activity at 10 µM (CCRF-CEM)?
A: The activity at 10 µM was 3.97%.

Q: And the activity at 10 µM (HT29)?
A: Its activity at 10 µM is -70.3%.

Q: What about the activity at 10 µM (M14) of the same compound?
A: The activity at 10 µM was -75.5%.

Q: And the activity at 10 µM (IGROV1)?
A: The activity at 10 µM was -28.9%.

Q: What about the growth percent rate (SK-MEL-5; 10 μM one-dose, SK-MEL-5 melanoma, negative = lethality) of the same compound?
A: The growth percent rate was −98.54%.

Q: What about the activity at 10 µM (SK-MEL-5; Homo sapiens, 10 μM, SK-MEL-5, Melanoma, read-out: Growth percent rate) of the same compound?
A: Its activity at 10 µM is -98.5%.

Q: What about the activity at 10 µM (ACHN) of the same compound?
A: The activity at 10 µM was -20.3%.

Q: And the activity at 10 µM (HCT-116)?
A: The activity at 10 µM was -25.6%.
